Test system: rat
Settings: in vivo

SMILES | LD50rat [mg/kg]
NN [Hydrazine] | 60
NNCCO.O=[N+]([O-])O [HEHN, 2-hydroxyethyl hydrazinium nitrate] | 325

— US20140190599A1 (priority 2004, published 2014)
